Data: PubChem BioAssay AID256 (DTP/NCI, 2004)
Where “and” joins values, the source holds several entries; their conditions need not be identical. Identical values can stand only once. Toxic doses and inconclusive results are not listed. How the source made its calls: active means survival T/C of 150% or more; inactive means T/C below 125% in these data.

Test system: CD2F1 mice, L1210 leukemia ip, survival T/C
Assay: NCI In Vivo Anticancer Drug Screen. Data for tumor model L1210 Leukemia (intraperitoneal) in CD2F1 (CDF1) mice
Conditions: higher = longer survival
Method in brief: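 Tumor-bearing mice (transplanted tumor) were split into treated and vehicle control groups, and the measured endpoint of each treated group was divided by that of its vehicle controls.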

[1] = endpoint: mean survival time, dose: 100.0 mg/kg/injection, schedule: Q01DX009 (ip), vehicle: other
[2] = endpoint: mean survival time, dose: 200.0 mg/kg/injection, schedule: Q01DX009 (ip), vehicle: other
[3] = endpoint: mean survival time, dose: 25.0 mg/kg/injection, schedule: Q01DX009 (ip), vehicle: saline with Tween-80
[4] = endpoint: mean survival time, dose: 200.0 mg/kg/injection, schedule: Q04DX002 (ip), vehicle: saline with Tween-80
[5] = endpoint: mean survival time, dose: 100.0 mg/kg/injection, schedule: Q01DX001 (ip), vehicle: saline with Tween-80
[6] = endpoint: mean survival time, dose: 200.0 mg/kg/injection, schedule: Q01DX001 (ip), vehicle: saline with Tween-80
[7] = endpoint: mean survival time, dose: 400.0 mg/kg/injection, schedule: Q01DX001 (ip), vehicle: saline with Tween-80
[8] = endpoint: mean survival time, dose: 100.0 mg/kg/injection, schedule: Q04DX002 (ip), vehicle: saline with Tween-80
[9] = endpoint: mean survival time, dose: 400.0 mg/kg/injection, schedule: Q04DX002 (ip), vehicle: saline with Tween-80
[10] = endpoint: mean survival time, dose: 100.0 mg/kg/injection, schedule: Q04DX003 (ip), vehicle: saline with Tween-80
[11] = endpoint: mean survival time, dose: 400.0 mg/kg/injection, schedule: Q04DX003 (ip), vehicle: saline with Tween-80
[12] = endpoint: mean survival time, dose: 50.0 mg/kg/injection, schedule: Q01DX009 (ip), vehicle: saline with Tween-80
[13] = endpoint: mean survival time, dose: 100.0 mg/kg/injection, schedule: Q01DX009 (ip), vehicle: saline with Tween-80
[14] = endpoint: mean survival time, dose: 100.0 mg/kg/injection, schedule: Q04DX002 (ip), vehicle: saline
[15] = endpoint: mean survival time, dose: 200.0 mg/kg/injection, schedule: Q04DX002 (ip), vehicle: saline
[16] = endpoint: mean survival time, dose: 100.0 mg/kg/injection, schedule: Q01DX001 (ip), vehicle: saline
[17] = endpoint: mean survival time, dose: 200.0 mg/kg/injection, schedule: Q01DX001 (ip), vehicle: saline
[18] = endpoint: mean survival time, dose: 400.0 mg/kg/injection, schedule: Q01DX001 (ip), vehicle: saline

Measured: T/C

Nc1cccc2ccc(O)cc12
inactive: endpoint: mean survival time, dose: 100.0 mg/kg/injection, schedule: Q01DX001 (ip), vehicle: Klucel (hydroxypropylcellulose) (HPC) 96 % of control | endpoint: mean survival time, dose: 200.0 mg/kg/injection, schedule: Q01DX001 (ip), vehicle: Klucel (hydroxypropylcellulose) (HPC) 86 % of control | endpoint: mean survival time, dose: 400.0 mg/kg/injection, schedule: Q01DX001 (ip), vehicle: Klucel (hydroxypropylcellulose) (HPC) 104 % of control

CCOC(=O)Nc1cc(F)ccc1F
inactive: [1] 103 % of control | [2] 94 % of control | endpoint: mean survival time, dose: 400.0 mg/kg/injection, schedule: Q01DX009 (ip), vehicle: other 95 % of control

O=C(O)c1ccccc1C(=O)N1CCCCC1
inactive: endpoint: mean survival time, dose: 12.5 mg/kg/injection, schedule: Q04DX002 (ip), vehicle: saline with Tween-80 94 % of control | endpoint: mean survival time, dose: 25.0 mg/kg/injection, schedule: Q04DX002 (ip), vehicle: saline with Tween-80 90 % of control | endpoint: mean survival time, dose: 50.0 mg/kg/injection, schedule: Q04DX002 (ip), vehicle: saline with Tween-80 110 % of control

CC(=O)Nc1ccc(Nc2ccc(C(=C3C=CC(=[N+](C)CCC#N)C=C3)c3ccc(N(C)CCC#N)cc3)cc2)cc1
inactive: endpoint: mean survival time, dose: 12.0 mg/kg/injection, schedule: Q01DX009 (ip), vehicle: saline with Tween-80 107 % of control | endpoint: mean survival time, dose: 12.5 mg/kg/injection, schedule: Q01DX009 (ip), vehicle: saline with Tween-80 107 % of control | [3] 105 % of control and 109 % of control | [4] 106 % of control

CC(C)(CO)NC(=O)CC1CCCCC1
inactive: [5] 103 % of control | [6] 103 % of control | [7] 100 % of control

O=C1C=C(O)C2C(=O)C1C1/C(=[N+](/[O-])O)C=C([N+](=O)[O-])C2C1[N+](=O)[O-] (stereo not drawn)
inactive: [8] 98 % of control | [4] 110 % of control | [9] 98 % of control

COC(=O)c1cc(C)n(-c2ccc(C)cc2)c1C
inactive: [10] 100 % of control | endpoint: mean survival time, dose: 200.0 mg/kg/injection, schedule: Q04DX003 (ip), vehicle: saline with Tween-80 96 % of control | [11] 97 % of control

NC1CCCCC1N.O=S(=O)([O-])CCCN1CCOCC1.O=S(=O)([O-])CCCN1CCOCC1.[Pt+4]
active: endpoint: median survival time, dose: 3.12 mg/kg/injection, schedule: Q04DX003 (ip), vehicle: saline with Tween-80 361 % of control | endpoint: median survival time, dose: 6.25 mg/kg/injection, schedule: Q04DX003 (ip), vehicle: saline with Tween-80 174 % of control and 361 % of control | endpoint: median survival time, dose: 12.5 mg/kg/injection, schedule: Q04DX003 (ip), vehicle: saline with Tween-80 195 % of control and 196 % of control | endpoint: median survival time, dose: 25.0 mg/kg/injection, schedule: Q04DX003 (ip), vehicle: saline with Tween-80 341 % of control and 361 % of control | endpoint: median survival time, dose: 50.0 mg/kg/injection, schedule: Q04DX003 (ip), vehicle: saline with Tween-80 228 % of control and 365 % of control

COC(OC)c1[nH]c(=S)[nH]c(=O)c1Cc1cccc(Cl)c1
inactive: endpoint: mean survival time, dose: 100.0 mg/kg/injection, schedule: Q04DX003 (ip), vehicle: saline sonified 95 % of control | endpoint: mean survival time, dose: 200.0 mg/kg/injection, schedule: Q04DX003 (ip), vehicle: saline sonified 101 % of control | endpoint: mean survival time, dose: 400.0 mg/kg/injection, schedule: Q04DX003 (ip), vehicle: saline sonified 108 % of control

Cc1nc2ccccc2n1C
inactive: [3] 105 % of control | [12] 96 % of control | [13] 104 % of control

NCc1cccnc1
inactive: [14] 96 % of control | [15] 107 % of control | endpoint: mean survival time, dose: 400.0 mg/kg/injection, schedule: Q04DX002 (ip), vehicle: saline 111 % of control

CCOC(OCC)c1cc(=O)[nH]c(NC(C)=O)n1
inactive: [16] 95 % of control | [17] 103 % of control | [18] 95 % of control

CC1(C)N=C(N)N=C(N)N1c1ccc(C(=O)Nc2ccc(S(=O)(=O)F)cc2)cc1
inactive: [16] 94 % of control | [17] 97 % of control | [18] 103 % of control

CCn1cnccc1=O
inactive: [14] 92 % of control | [15] 109 % of control | endpoint: mean survival time, dose: 300.0 mg/kg/injection, schedule: Q04DX002 (ip), vehicle: saline 115 % of control | endpoint: mean survival time, dose: 450.0 mg/kg/injection, schedule: Q04DX002 (ip), vehicle: saline 117 % of control

CCN1C(=O)CSC1=S
inactive: endpoint: mean survival time, dose: 50.0 mg/kg/injection, schedule: Q01DX009 (ip), vehicle: other 88 % of control | endpoint: mean survival time, dose: 100.0 mg/kg/injection, schedule: Q01DX001 (ip), vehicle: other 94 % of control | [1] 108 % of control | endpoint: mean survival time, dose: 100.0 mg/kg/injection, schedule: Q04DX003 (ip), vehicle: other 95 % of control | endpoint: mean survival time, dose: 200.0 mg/kg/injection, schedule: Q01DX001 (ip), vehicle: other 93 % of control | [2] 95 % of control | endpoint: mean survival time, dose: 200.0 mg/kg/injection, schedule: Q04DX003 (ip), vehicle: other 93 % of control | endpoint: mean survival time, dose: 400.0 mg/kg/injection, schedule: Q01DX001 (ip), vehicle: other 91 % of control

O=C(COc1ccc(Cl)c(Cl)c1)Nc1cccc(S(=O)(=O)F)c1
inactive: [5] 95 % of control | [6] 95 % of control | [7] 91 % of control

O=C(O)C(=O)O.[Co].[NH-]CC[NH-].[NH-]CC[NH-]
inactive: [14] 98 % of control

COc1cc([N+](=O)[O-])ccc1NC(=O)Nc1ccc(Cl)cc1
inactive: [13] 89 % of control | [10] 91 % of control | endpoint: mean survival time, dose: 200.0 mg/kg/injection, schedule: Q01DX009 (ip), vehicle: saline with Tween-80 87 % of control | [11] 107 % of control

CCSC(C)CC(=O)O (stereo not drawn)
inactive: [16] 103 % of control | [17] 103 % of control

C[CH2][Sn]1([CH2]C)[O]C2C(CO)OC(n3ccc(=O)[nH]c3=O)C2[O]1 (stereo not drawn)
inactive: endpoint: mean survival time, dose: 1.56 mg/kg/injection, schedule: Q01DX005 (ip), vehicle: water 103 % of control | endpoint: mean survival time, dose: 3.13 mg/kg/injection, schedule: Q01DX005 (ip), vehicle: water 102 % of control | endpoint: mean survival time, dose: 6.25 mg/kg/injection, schedule: Q01DX005 (ip), vehicle: water 96 % of control | endpoint: mean survival time, dose: 12.5 mg/kg/injection, schedule: Q01DX005 (ip), vehicle: other 104 % of control

O=C(NC1CCC(CC2CCCCC2)CC1)C(Cl)Cl (stereo not drawn)
inactive: [8] 101 % of control | [4] 101 % of control | [9] 89 % of control

O=C(/C=C/c1ccccc1)c1cccc([N+](=O)[O-])c1
inactive: [8] 91 % of control | [4] 91 % of control | [9] 95 % of control

C1CC[N-]CC1.CC(=N\O)/C(C)=N/O.CC(=N\O)/C(C)=N/O.[CH2-]CCN1CCOCC1.[Co+2]
inactive: [3] 105 % of control | endpoint: mean survival time, dose: 25.0 mg/kg/injection, schedule: Q04DX003 (ip), vehicle: saline with Tween-80 103 % of control | [12] 105 % of control | endpoint: mean survival time, dose: 50.0 mg/kg/injection, schedule: Q04DX003 (ip), vehicle: saline with Tween-80 106 % of control | [10] 112 % of control

Cc1cc(C)c(C)c(C(=O)C(=O)c2ccccc2)c1
inactive: endpoint: mean survival time, dose: 75.0 mg/kg/injection, schedule: Q01DX001 (ip), vehicle: other 93 % of control | endpoint: mean survival time, dose: 150.0 mg/kg/injection, schedule: Q01DX001 (ip), vehicle: other 94 % of control | endpoint: mean survival time, dose: 300.0 mg/kg/injection, schedule: Q01DX001 (ip), vehicle: other 100 % of control

COC(=O)C#CC(N)=O
inactive: endpoint: mean survival time, dose: 1.25 mg/kg/injection, schedule: Q01DX009 (ip), vehicle: saline sonified 106 % of control | endpoint: mean survival time, dose: 2.5 mg/kg/injection, schedule: Q01DX009 (ip), vehicle: saline sonified 109 % of control | endpoint: mean survival time, dose: 5.0 mg/kg/injection, schedule: Q01DX009 (ip), vehicle: saline sonified 113 % of control | endpoint: mean survival time, dose: 5.0 mg/kg/injection, schedule: Q04DX003 (ip), vehicle: saline sonified 110 % of control

CCC(C)(OC(C)=O)C(=O)OC1C(=O)OC2CC3C(C)=CC(O)C(O)C3(C)C3C4(O)OCC23C1C(C)C4O (stereo not drawn)
inactive: endpoint: mean survival time, dose: 0.25 mg/kg/injection, schedule: Q01DX009 (ip), vehicle: saline + alcohol 98 % of control | endpoint: mean survival time, dose: 0.5 mg/kg/injection, schedule: Q01DX009 (ip), vehicle: saline + alcohol 102 % of control | endpoint: mean survival time, dose: 1.0 mg/kg/injection, schedule: Q01DX009 (ip), vehicle: saline + alcohol 106 % of control | endpoint: mean survival time, dose: 2.0 mg/kg/injection, schedule: Q01DX009 (ip), vehicle: saline + alcohol 98 % of control | endpoint: mean survival time, dose: 4.0 mg/kg/injection, schedule: Q01DX009 (ip), vehicle: saline + alcohol 96 % of control

CCN(CC)C(C)C(=O)Nc1c(C)cccc1Cl (stereo not drawn)
inactive: endpoint: mean survival time, dose: 25.0 mg/kg/injection, schedule: Q01DX009 (ip), vehicle: saline 92 % of control | [16] 109 % of control
